In ChEMBL document CHEMBL2311425, “Histone deacetylase (HDAC) inhibitors with a novel connecting unit linker region reveal a selectivity profile for HDAC4 and HDAC5 with improved activity against chemoresistant cancer cells” (J Med Chem, 2013):
pIC50: −log10 of the molar value.

Assays:
MDA-MB-231 [1] = test: Potentiation of 25 uM cisplatin-induced toxicity in 1 uM cisplatin resistant human MDA-MB-231 cells at 0.5 uM pretreated for 48 hrs followed by 1 uM cisplatin treatment by MTT assay; format: functional
MDA-MB-231 [2] = test: Potentiation of 25 uM cisplatin-induced toxicity in 1 uM cisplatin resistant human MDA-MB-231 cells at 0.25 uM pretreated for 48 hrs followed by 1 uM cisplatin treatment by MTT assay; format: functional
A2780 [3] = test: Potentiation of 5 uM cisplatin-induced toxicity in 5 uM cisplatin resistant human A2780 cells at 1.5 uM pretreated for 48 hrs followed by 5 uM cisplatin treatment by MTT assay; format: functional
CAL-27 [4] = test: Potentiation of 2.5 uM cisplatin-induced toxicity in 1 uM cisplatin resistant human CAL27 cells at 1 uM pretreated for 48 hrs followed by 1 uM cisplatin treatment by MTT assay; format: functional
CAL-27 [5] = test: Potentiation of 2.5 uM cisplatin-induced toxicity in 1 uM cisplatin resistant human CAL27 cells at 0.5 uM pretreated for 48 hrs followed by 1 uM cisplatin treatment by MTT assay; format: functional
MDA-MB-231 [6] = test: Potentiation of 10 uM cisplatin-induced toxicity in 1 uM cisplatin resistant human MDA-MB-231 cells at 1 uM pretreated for 48 hrs followed by 1 uM cisplatin treatment by MTT assay; format: functional
MDA-MB-231 [7] = test: Potentiation of 10 uM cisplatin-induced toxicity in 1 uM cisplatin resistant human MDA-MB-231 cells at 0.25 uM pretreated for 48 hrs followed by 1 uM cisplatin treatment by MTT assay; format: functional
MDA-MB-231 [8] = test: Potentiation of 5 uM cisplatin-induced toxicity in 1 uM cisplatin resistant human MDA-MB-231 cells at 1.5 uM pretreated for 48 hrs followed by 1 uM cisplatin treatment by MTT assay; format: functional
MDA-MB-231 [9] = test: Potentiation of 5 uM cisplatin-induced toxicity in 1 uM cisplatin resistant human MDA-MB-231 cells at 0.5 uM pretreated for 48 hrs followed by 1 uM cisplatin treatment by MTT assay; format: functional
Histone deacetylase 8 = molecular target: T1, Histone deacetylase 8 (Homo sapiens, UniProt Q9BY41); test: Inhibition of human HDAC8 by fluorescence assay
T1 sequence (Q9BY41 whole entry): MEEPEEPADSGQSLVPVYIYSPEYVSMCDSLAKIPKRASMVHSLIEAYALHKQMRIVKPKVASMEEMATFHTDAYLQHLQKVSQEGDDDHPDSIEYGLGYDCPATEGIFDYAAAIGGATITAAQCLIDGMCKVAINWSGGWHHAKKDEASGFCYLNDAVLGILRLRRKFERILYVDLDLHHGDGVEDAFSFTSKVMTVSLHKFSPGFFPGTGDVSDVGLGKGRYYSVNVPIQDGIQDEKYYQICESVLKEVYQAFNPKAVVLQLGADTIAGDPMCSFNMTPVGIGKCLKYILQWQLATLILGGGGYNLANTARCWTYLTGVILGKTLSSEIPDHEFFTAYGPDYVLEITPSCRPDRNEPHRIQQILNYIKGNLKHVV

Histone deacetylase 5 = Histone deacetylase 5 (Homo sapiens, UniProt Q9UQL6); test: Inhibition of human HDAC5 by fluorescence assay
Histone deacetylase 4 = Histone deacetylase 4 (Homo sapiens, UniProt P56524); test: Inhibition of human HDAC4 by fluorescence assay
Histone deacetylase 1 = Histone deacetylase 1 (Homo sapiens, UniProt Q13547); test: Inhibition of human HDAC1 by fluorescence assay
Histone deacetylase [10] = test: Inhibition of HDAC in cisplatin resistant human KYSE-510 cells after 18 hrs by fluorescence assay; format: cell-based
Histone deacetylase [11] = test: Inhibition of HDAC in cisplatin sensitive human MDA-MB-231 cells after 18 hrs by fluorescence assay; format: cell-based
CAL-27 [12] = test: Cytotoxicity against cisplatin resistant human CAL27 cells after 72 hrs by MTT assay; format: functional, cell-based; settings: CAL-27, 72 h
Histone deacetylase [13] = test: Inhibition of HDAC in cisplatin resistant human A2780 cells after 18 hrs by fluorescence assay; format: cell-based
A2780 [14] = test: Potentiation of 20 uM cisplatin-induced toxicity in 5 uM cisplatin resistant human A2780 cells at 0.5 uM pretreated for 48 hrs followed by 5 uM cisplatin treatment by MTT assay; format: functional
A2780 [15] = test: Potentiation of 20 uM cisplatin-induced toxicity in 5 uM cisplatin resistant human A2780 cells at 0.25 uM pretreated for 48 hrs followed by 5 uM cisplatin treatment by MTT assay; format: functional
MDA-MB-231 [16] = test: Potentiation of […] cisplatin-induced toxicity in 1 uM cisplatin resistant human MDA-MB-231 cells at 1.5 uM pretreated for 48 hrs followed by 1 uM cisplatin treatment by MTT assay; format: functional
MDA-MB-231 [17] = test: Potentiation of […] cisplatin-induced toxicity in 1 uM cisplatin resistant human MDA-MB-231 cells at 0.25 uM pretreated for 48 hrs followed by 1 uM cisplatin treatment by MTT assay; format: functional
A2780 [18] = test: Potentiation of 10 uM cisplatin-induced toxicity in 5 uM cisplatin resistant human A2780 cells at 1 uM pretreated for 48 hrs followed by 5 uM cisplatin treatment by MTT assay; format: functional
Histone deacetylase [19] = test: Inhibition of HDAC in human A2780 cells after 18 hrs by fluorescence assay; format: cell-based
KYSE-510 = test: Potentiation of 3.16 uM cisplatin-induced toxicity in 0.5 uM cisplatin resistant human KYSE-510 cells at 1 uM pretreated for 48 hrs followed by 0.5 uM cisplatin treatment by MTT assay; format: functional
CAL-27 [20] = test: Potentiation of 10 uM cisplatin-induced toxicity in 1 uM cisplatin resistant human CAL27 cells at 1.5 uM pretreated for 48 hrs followed by 1 uM cisplatin treatment by MTT assay; format: functional
MDA-MB-231 [21] = test: Potentiation of 40 uM cisplatin-induced toxicity in 1 uM cisplatin resistant human MDA-MB-231 cells at 1 uM pretreated for 48 hrs followed by 1 uM cisplatin treatment by MTT assay; format: functional
A2780 [22] = test: Potentiation of 8 uM cisplatin-induced toxicity in 5 uM cisplatin resistant human A2780 cells at 1 uM pretreated for 48 hrs followed by 5 uM cisplatin treatment by MTT assay; format: functional
A2780 [23] = test: Potentiation of 8 uM cisplatin-induced toxicity in 5 uM cisplatin resistant human A2780 cells at 0.25 uM pretreated for 48 hrs followed by 5 uM cisplatin treatment by MTT assay; format: functional
MDA-MB-231 [24] = test: Potentiation of 25 uM cisplatin-induced toxicity in 1 uM cisplatin resistant human MDA-MB-231 cells at 1 uM pretreated for 48 hrs followed by 1 uM cisplatin treatment by MTT assay; format: functional

Histone deacetylase 4, sequence (P56524 whole entry): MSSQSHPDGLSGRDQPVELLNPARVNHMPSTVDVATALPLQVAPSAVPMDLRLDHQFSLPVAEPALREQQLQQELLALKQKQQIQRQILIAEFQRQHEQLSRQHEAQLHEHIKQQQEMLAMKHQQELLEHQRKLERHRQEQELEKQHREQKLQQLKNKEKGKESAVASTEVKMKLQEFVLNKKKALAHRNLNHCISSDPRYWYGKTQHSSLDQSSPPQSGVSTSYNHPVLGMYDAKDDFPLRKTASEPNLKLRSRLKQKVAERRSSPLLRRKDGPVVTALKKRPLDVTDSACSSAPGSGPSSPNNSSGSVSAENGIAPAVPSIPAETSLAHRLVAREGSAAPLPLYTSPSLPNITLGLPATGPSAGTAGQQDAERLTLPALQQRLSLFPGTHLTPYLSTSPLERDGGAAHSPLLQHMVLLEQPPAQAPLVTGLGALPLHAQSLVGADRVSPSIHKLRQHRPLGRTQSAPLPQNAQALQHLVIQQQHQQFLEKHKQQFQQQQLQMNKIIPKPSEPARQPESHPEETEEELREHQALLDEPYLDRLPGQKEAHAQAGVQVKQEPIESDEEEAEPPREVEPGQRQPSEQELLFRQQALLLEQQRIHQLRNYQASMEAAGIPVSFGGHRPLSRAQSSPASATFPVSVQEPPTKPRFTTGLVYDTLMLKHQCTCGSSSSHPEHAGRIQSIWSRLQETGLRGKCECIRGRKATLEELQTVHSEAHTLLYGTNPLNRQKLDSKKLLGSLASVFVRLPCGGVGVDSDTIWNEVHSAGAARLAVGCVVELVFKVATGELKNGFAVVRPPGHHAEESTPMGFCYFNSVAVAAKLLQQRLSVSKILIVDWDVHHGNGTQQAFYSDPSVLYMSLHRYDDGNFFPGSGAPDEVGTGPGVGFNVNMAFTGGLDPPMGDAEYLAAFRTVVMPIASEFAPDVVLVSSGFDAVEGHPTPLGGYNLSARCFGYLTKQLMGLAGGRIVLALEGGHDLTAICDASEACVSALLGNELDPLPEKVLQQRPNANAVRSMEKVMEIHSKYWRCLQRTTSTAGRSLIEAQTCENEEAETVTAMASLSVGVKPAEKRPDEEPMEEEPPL
Histone deacetylase 1, sequence (Q13547 whole entry): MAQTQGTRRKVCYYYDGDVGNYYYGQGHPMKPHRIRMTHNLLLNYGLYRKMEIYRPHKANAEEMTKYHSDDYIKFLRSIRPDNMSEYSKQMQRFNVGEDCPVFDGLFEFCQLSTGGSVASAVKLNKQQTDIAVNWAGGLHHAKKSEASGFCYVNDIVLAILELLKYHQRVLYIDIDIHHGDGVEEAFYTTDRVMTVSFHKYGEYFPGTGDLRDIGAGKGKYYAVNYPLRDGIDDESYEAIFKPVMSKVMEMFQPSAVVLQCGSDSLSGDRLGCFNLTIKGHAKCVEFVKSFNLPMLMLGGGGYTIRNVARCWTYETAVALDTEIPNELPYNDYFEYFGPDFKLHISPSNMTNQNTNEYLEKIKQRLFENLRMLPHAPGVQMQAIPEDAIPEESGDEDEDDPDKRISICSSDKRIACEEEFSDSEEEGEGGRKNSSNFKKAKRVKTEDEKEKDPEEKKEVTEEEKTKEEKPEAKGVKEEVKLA
Histone deacetylase 5, sequence (Q9UQL6 whole entry): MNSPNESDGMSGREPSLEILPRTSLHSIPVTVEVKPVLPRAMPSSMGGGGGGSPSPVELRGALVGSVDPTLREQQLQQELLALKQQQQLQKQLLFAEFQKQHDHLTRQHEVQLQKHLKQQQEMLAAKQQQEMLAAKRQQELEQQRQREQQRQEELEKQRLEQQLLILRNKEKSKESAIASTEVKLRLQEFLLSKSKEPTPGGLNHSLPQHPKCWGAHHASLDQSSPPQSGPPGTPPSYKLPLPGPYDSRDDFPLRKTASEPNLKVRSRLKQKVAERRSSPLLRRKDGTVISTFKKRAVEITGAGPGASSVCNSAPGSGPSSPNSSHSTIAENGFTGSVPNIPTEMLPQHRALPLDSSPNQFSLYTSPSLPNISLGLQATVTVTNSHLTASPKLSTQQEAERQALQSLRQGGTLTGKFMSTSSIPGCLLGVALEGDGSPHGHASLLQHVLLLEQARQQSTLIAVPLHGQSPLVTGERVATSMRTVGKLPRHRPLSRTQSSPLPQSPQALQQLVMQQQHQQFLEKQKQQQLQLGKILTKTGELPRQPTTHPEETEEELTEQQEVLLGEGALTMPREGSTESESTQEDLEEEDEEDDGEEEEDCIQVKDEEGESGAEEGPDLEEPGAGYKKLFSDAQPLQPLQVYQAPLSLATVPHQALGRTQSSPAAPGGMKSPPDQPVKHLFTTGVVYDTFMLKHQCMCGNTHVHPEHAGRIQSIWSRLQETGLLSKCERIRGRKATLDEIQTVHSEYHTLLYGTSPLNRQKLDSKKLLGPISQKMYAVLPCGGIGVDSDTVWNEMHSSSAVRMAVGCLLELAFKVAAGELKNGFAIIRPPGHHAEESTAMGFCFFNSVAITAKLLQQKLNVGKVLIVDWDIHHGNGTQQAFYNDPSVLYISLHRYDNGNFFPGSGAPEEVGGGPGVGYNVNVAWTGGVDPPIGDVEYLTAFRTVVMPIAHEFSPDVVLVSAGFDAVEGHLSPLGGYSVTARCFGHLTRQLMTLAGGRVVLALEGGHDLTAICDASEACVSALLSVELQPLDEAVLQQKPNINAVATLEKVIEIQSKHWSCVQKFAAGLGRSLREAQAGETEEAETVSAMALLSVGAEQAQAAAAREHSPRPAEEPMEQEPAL

In the case of `Cc1cc(C)cc(C(=O)NOCCCCCC(=O)NO)c1`, the Activity (MDA-MB-231 [1]) was “Dose-dependent effect”, the “fractional inhibitory concentration index (FICI)” value (MDA-MB-231 [1]) was 0.79 and the Activity (MDA-MB-231 [2]) was “Dose-dependent effect”. The Activity (A2780 [3]) was “Dose-dependent effect”, the “fractional inhibitory concentration index (FICI)” value (A2780 [3]) was 0.81 and the Activity (CAL-27 [4]) was “Dose-dependent effect”. For the same compound, the “fractional inhibitory concentration index (FICI)” value (CAL-27 [4]) was 0.38, the Activity (CAL-27 [5]) was “Dose-dependent effect” and the Activity (MDA-MB-231 [6]) was “Dose-dependent effect”. The “fractional inhibitory concentration index (FICI)” value (MDA-MB-231 [6]) was 0.85, the Activity (MDA-MB-231 [7]) was “Dose-dependent effect” and the Activity (MDA-MB-231 [8]) was “Dose-dependent effect”. The “fractional inhibitory concentration index (FICI)” value (MDA-MB-231 [8]) was <0.2, the Activity (MDA-MB-231 [9]) was “Dose-dependent effect” and the “fractional inhibitory concentration index (FICI)” value (MDA-MB-231 [9]) was <0.2. For the same compound, the pIC50 (Histone deacetylase 8) was 5.89, the pIC50 (Histone deacetylase 5) was 8.37 and the pIC50 (Histone deacetylase 4) was 7.92. For the same compound, the pIC50 (Histone deacetylase 1) was 6.49, the IC50 (Histone deacetylase [10]) was 0.35 µM and the IC50 (Histone deacetylase [11]) was 0.46 µM. The pIC50 (CAL-27 [12]) was 5.74, the IC50 (Histone deacetylase [13]) was 0.32 µM and the Activity (A2780 [14]) was “Dose-dependent effect”. The “fractional inhibitory concentration index (FICI)” value (A2780 [14]) was 0.58, the Activity (A2780 [15]) was “Dose-dependent effect” and the “fractional inhibitory concentration index (FICI)” value (A2780 [15]) was 0.76. For the same compound, the Activity (MDA-MB-231 [16]) was “Dose-dependent effect”, the “fractional inhibitory concentration index (FICI)” value (MDA-MB-231 [16]) was 0.8 and the Activity (MDA-MB-231 [17]) was “Dose-dependent effect”. The “fractional inhibitory concentration index (FICI)” value (MDA-MB-231 [17]) was 0.9, the Activity (A2780 [18]) was “Dose-dependent effect” and the “fractional inhibitory concentration index (FICI)” value (A2780 [18]) was 0.61. For the same compound, the IC50 (Histone deacetylase [19]) was 0.65 µM, the Activity (KYSE-510) was “Dose-dependent effect” and the “fractional inhibitory concentration index (FICI)” value (KYSE-510) was 0.09. The Activity (CAL-27 [20]) was “Dose-dependent effect”, the “fractional inhibitory concentration index (FICI)” value (CAL-27 [20]) was 0.2 and the Activity (MDA-MB-231 [21]) was “Dose-dependent effect”. The “fractional inhibitory concentration index (FICI)” value (MDA-MB-231 [21]) was 0.78, the Activity (A2780 [22]) was “Dose-dependent effect” and the “fractional inhibitory concentration index (FICI)” value (A2780 [22]) was 0.59. For the same compound, the Activity (A2780 [23]) was “Dose-dependent effect”, the “fractional inhibitory concentration index (FICI)” value (A2780 [23]) was 0.78 and the Activity (MDA-MB-231 [24]) was “Dose-dependent effect”. The “fractional inhibitory concentration index (FICI)” value (MDA-MB-231 [24]) was 0.72.
